Where two headings read alike, the source gives them in different places.
Tests used:
[1] = target: anti-ryanodine antibodies; experiment: Competitive radioimmunoassay: inhibition of [3H]ryanodine-antibody binding (dextran-coated charcoal assay); set-up: species or system rabbit; conditions: for binds times less tightly than ryanodine (antibody): relative to ryanodine
Experimental: Binding was performed in triplicate in 1.5 ml polypropylene tubes. […] Following the addition of serial dilutions of antibody, the tubes were shaken and incubated for 1 h at room temperature. The tubes were placed on ice for 10 min and then 0.2 ml of stirred, ice-cold dextran-coated charcoal (0.0625% Dextran T-70, 0.625% Norit A charcoal in TSG) was added to each tube. The tubes were shaken and incubated for an additional 10 min on ice. […] Controls without antiserum were included to determine the amount of radiolabel that could not be precipitated by the charcoal.
Ryanodine derivatives were prepared by serial dilution in TSG.

[2] = target: T1, skeletal muscle ryanodine receptor (Oryctolagus cuniculus, UniProt P11716); experiment: [3H]Ryanodine competition binding to rabbit skeletal muscle triads
T1 construct: Rabbit skeletal muscle triads were prepared as previously described; from tissue; host or cells: rabbit skeletal muscle triads
T1 sequence (P11716 whole entry): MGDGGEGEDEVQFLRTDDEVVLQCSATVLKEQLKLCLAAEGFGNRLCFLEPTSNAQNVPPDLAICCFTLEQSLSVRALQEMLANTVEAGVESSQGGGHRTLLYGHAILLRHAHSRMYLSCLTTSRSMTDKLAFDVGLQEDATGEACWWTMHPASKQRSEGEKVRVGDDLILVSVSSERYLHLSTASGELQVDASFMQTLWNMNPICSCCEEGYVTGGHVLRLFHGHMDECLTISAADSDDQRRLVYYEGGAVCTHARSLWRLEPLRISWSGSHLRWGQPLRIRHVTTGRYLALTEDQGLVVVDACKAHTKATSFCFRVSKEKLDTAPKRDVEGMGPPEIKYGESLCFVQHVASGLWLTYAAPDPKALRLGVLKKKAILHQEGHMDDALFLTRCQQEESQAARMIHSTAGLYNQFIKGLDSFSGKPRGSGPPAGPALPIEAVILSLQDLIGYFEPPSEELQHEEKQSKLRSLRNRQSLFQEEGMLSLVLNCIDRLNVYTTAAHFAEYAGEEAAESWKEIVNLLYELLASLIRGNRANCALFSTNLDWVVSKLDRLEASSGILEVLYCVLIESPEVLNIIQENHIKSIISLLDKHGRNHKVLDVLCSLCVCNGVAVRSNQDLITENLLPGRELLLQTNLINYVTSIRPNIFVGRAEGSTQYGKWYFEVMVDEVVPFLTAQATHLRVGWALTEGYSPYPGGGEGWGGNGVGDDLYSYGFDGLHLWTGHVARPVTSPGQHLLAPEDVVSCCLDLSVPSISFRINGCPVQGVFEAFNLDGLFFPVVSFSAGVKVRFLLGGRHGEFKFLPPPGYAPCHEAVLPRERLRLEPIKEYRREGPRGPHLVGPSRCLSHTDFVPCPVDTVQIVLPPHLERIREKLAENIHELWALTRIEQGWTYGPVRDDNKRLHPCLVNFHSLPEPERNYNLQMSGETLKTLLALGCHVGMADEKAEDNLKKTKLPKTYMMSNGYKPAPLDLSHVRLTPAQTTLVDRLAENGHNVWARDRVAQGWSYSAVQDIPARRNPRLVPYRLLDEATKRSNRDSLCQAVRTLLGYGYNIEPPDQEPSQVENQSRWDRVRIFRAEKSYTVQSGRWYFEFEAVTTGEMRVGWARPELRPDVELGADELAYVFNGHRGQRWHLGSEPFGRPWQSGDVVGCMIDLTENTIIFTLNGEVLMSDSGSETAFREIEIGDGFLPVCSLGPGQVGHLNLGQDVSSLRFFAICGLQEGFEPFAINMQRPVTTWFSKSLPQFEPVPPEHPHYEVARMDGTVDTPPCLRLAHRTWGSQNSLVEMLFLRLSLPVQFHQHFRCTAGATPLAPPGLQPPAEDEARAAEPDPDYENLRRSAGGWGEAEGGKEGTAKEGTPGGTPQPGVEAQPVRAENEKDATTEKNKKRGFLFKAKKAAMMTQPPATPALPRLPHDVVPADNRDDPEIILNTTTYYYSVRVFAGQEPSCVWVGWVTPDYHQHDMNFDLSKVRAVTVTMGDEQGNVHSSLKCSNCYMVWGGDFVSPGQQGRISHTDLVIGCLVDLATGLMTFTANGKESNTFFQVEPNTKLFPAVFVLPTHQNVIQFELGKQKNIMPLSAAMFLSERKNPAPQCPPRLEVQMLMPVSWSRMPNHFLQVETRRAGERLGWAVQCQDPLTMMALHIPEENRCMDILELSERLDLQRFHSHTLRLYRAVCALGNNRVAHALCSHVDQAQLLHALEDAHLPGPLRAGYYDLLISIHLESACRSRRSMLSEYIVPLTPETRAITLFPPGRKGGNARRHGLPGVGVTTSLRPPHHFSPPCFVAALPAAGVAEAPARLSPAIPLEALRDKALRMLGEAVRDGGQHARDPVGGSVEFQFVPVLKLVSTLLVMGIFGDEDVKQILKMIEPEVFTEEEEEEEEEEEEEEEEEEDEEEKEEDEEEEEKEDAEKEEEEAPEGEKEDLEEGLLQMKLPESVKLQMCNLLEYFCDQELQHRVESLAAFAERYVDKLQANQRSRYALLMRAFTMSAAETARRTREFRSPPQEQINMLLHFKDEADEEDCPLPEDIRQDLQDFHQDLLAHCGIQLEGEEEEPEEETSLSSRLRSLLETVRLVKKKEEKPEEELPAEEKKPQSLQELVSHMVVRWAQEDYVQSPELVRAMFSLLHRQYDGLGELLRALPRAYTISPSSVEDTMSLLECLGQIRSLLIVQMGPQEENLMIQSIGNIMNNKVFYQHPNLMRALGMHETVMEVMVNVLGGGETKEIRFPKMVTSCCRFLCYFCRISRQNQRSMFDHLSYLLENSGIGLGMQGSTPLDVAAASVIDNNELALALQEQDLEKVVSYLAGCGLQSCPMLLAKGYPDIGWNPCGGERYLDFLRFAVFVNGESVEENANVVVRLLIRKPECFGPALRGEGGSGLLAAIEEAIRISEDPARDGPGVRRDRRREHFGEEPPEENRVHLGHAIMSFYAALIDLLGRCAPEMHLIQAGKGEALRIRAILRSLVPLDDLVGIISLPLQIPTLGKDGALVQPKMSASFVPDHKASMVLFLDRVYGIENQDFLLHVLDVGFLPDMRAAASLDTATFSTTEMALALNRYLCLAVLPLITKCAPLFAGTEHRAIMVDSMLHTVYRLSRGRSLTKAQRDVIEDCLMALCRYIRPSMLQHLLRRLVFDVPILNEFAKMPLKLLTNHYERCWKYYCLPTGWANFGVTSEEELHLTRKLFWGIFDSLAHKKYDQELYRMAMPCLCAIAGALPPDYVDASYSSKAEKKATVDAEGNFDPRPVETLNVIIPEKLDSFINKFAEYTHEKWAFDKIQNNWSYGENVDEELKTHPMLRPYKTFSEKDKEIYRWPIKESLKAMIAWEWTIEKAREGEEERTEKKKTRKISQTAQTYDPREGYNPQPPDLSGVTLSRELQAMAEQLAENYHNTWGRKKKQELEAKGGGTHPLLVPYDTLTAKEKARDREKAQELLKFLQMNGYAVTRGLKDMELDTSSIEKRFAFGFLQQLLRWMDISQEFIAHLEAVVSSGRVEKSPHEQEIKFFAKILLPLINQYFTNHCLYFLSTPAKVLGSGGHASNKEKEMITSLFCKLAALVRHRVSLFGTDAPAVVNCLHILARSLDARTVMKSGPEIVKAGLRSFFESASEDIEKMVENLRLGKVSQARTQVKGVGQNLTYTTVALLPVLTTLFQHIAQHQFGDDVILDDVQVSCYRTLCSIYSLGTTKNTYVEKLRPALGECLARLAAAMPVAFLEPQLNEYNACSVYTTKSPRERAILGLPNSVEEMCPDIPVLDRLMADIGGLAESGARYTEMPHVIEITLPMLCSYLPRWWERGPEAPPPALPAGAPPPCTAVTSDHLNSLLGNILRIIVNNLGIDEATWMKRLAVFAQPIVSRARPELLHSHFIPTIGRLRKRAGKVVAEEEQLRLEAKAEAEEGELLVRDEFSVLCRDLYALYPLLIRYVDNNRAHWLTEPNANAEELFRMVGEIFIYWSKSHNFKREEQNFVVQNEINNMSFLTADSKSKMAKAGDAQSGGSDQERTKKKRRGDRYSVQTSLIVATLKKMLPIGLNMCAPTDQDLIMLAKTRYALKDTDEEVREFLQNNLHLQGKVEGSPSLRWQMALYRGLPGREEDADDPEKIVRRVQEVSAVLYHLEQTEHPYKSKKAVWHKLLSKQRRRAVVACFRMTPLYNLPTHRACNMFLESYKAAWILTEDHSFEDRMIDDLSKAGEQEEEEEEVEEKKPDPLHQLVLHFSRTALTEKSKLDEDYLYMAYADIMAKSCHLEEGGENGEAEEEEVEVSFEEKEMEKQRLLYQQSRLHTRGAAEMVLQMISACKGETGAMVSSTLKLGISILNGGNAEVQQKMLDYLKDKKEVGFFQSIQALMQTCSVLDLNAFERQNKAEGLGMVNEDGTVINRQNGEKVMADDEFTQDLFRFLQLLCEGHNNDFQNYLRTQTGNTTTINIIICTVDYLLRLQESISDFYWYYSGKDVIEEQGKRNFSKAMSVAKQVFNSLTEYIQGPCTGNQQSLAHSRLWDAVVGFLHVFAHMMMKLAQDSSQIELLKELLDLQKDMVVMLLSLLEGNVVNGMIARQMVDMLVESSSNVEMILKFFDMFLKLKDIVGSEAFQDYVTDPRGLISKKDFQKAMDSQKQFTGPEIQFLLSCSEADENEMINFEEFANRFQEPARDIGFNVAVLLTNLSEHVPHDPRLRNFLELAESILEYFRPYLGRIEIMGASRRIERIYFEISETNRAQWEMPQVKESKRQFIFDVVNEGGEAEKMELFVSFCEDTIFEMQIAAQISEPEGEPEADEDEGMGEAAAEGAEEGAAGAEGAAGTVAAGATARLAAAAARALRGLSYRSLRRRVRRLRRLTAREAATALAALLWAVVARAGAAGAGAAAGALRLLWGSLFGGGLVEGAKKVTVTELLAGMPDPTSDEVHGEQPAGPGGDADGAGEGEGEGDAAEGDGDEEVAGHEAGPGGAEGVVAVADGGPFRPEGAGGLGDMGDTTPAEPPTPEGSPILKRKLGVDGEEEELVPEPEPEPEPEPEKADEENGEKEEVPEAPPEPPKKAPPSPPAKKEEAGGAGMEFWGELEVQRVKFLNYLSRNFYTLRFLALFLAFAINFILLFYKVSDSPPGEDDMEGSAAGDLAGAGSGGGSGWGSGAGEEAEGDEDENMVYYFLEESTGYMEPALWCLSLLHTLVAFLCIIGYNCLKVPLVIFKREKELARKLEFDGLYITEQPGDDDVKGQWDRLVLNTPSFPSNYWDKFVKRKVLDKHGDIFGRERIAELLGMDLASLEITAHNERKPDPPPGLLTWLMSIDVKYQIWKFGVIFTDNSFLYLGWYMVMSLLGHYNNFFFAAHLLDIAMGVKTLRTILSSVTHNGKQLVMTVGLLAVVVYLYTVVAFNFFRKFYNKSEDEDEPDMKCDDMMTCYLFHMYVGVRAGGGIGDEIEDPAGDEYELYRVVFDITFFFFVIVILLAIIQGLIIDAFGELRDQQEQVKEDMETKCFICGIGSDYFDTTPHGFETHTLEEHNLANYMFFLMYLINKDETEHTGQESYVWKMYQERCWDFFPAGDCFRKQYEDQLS
Experimental: Rabbit skeletal muscle triads were prepared as previously described (Sharp et al., J. Biol. Chem. 262: 12309-12315 (1987)). […]

[3] = target: T2, brain ryanodine receptor (brain membranes) (Oryctolagus cuniculus, UniProt P30957); experiment: [3H]Ryanodine competition binding to brain membranes; set-up: species or system rabbit
T2 construct: Crude rabbit brain membranes were purified as previously described; from tissue; host or cells: crude rabbit brain membranes (microsomes)
Source text: (§1) Canine cardiac junctional SR vesicles were isolated as described previously (Witcher et al., J. Biol. Chem. 266, 1114-11152 (1991)). Crude rabbit brain membranes were purified as previously described (Witcher et al., J. Biol. Chem. 267, 4963-4967 (1992)).

[4] = target: T1, skeletal muscle ryanodine receptor; experiment: Photoaffinity labeling of skeletal muscle triads with [3H]ABRy; format: binding, rabbit
Experimental: Since [^3 H]ABRy contains a photoactivatable azido group, this compound was used to covalently label skeletal muscle triads following equilibrium binding. […] The membranes were then pelleted at 400,000×g for 15 min and resuspended in 1 ml of the binding buffer with 5 mM glutathione. The samples were placed in a plastic petri dish at 4° C. and were exposed to UV light (365 nm) at a distance of 1 cm for 45 min. The membranes were then centrifuged in a microfuge at maximum speed for 15 min. at 4° C. The pellets were resuspended in Laemmli sample buffer.
The proteins were then analyzed by SDS-PAGE (3-12% gradient gels) using the buffer system of Laemmli (Nature 227, 680-685 (1970)). Gels were stained with Coomassie blue or transferred to nitrocellulose for immunoblot analysis as previously described (Witcher et al., Science 261, 486-489 (1993)). […] Gels used for fluorography were first stained with Coomassie blue, destained, soaked in Enlightning (DuPont), and dried under vacuum. The dried gels were then exposed to Kodak XAR-5 film at -80° C. The fluorograms were also analyzed densitometrically using a Molecular Dynamics Model 300A scanning densitometer.

[5] = target: T3, cardiac ryanodine receptor (cardiac membranes) (Canis lupus familiaris, UniProt A0A8I3MT21); experiment: [3H]Ryanodine competition binding to cardiac membranes; set-up: species or system canine
T3 construct: Canine cardiac junctional SR vesicles were isolated as described previously; from tissue; host or cells: canine cardiac junctional SR vesicles / cardiac microsomes
Source text: as §1

[6] = 1 nM [3H]ryanodine, 1:8,000 dilution of anti-ryanodine antibody, read-out: Inhibition of [^3 H] ryanodine-antibody binding, IC50
[7] = from FIG. 5, unit inferred, read-out: IC50 for binding to anti-ryanodine antibodies
[8] = IC50 for binding to the ryanodine receptor, rabbit skeletal membranes, from FIG. 5, unit inferred

| SMILES | IC50 [1, 6] [nM] | IC50 [1, 7] [nM] | binds times less tightly than ryanodine (antibody) [1] | IC50 [2, 8] [nM] | Kd ([1]; method of Muller, read-out: average antibody apparent dissociation constant (Kd) for the [3H]ryanodine-antibody complex) [nM] | IC50 [3] [nM] | proteins bound (specificity, words) [4] | binding to anti-ryanodine antibodies compared with ryanodine (words) [1] | binding to anti-ryanodine antibodies compared with ryanodine (words) ([1]; listed as compound 10) | IC50 [5] [nM] | binding to ryanodine receptor / skeletal membranes compared with ryanodine [2] | IC50 ([2]; half-maximal inhibition of [3H]ryanodine binding to triads, skeletal muscle triads, 1 nM [3H]ryanodine, 1 hr at 37° C.) [nM] | binding to anti-ryanodine antibodies compared with ryanodine (words) ([1]; listed as compound 11) | binding to anti-ryanodine antibodies compared with ryanodine (words) ([1]; listed as compound 12) |
| --- | --- | --- | --- | --- | --- | --- | --- | --- | --- | --- | --- | --- | --- | --- |
| CC(C)C1(O)C(OC(=O)c2ccc[nH]2)C2(O)C3(C)CC4(O)OC5(C(O)C(CSCCCCO)CCC35O)C2(O)C41C (centres unmarked) [Compound 4, 21-(4-Hydroxybutylmercapto)-ryanodine] | 25 | < 1000 | about 10 times | < 1000 | – | – | – | – | – | – | – | – | – | – |
| CC1CCC2(O)C3(C)CC4(O)OC2(C1O)C1(O)C3(O)C(OC(=O)c2ccc[nH]2)C(O)(C(C)C)C41C (centres unmarked) [[^3 H]ryanodine, reference compound] | – | – | – | – | 1 | – | – | – | – | – | – | – | – | – |
| CC1CCC2(O)C3(C)CC4(O)OC2(C1OC(=O)CCNC(=O)c1ccc(N=[N+]=[N-])cc1)C1(O)C3(O)C(OC(=O)c2ccc[nH]2)C(O)(C(C)C)C41C (centres unmarked) [Compound 10, 10-O-(3-[4-Azidobenzamido]-propionyl)-ryanodine] | 3.2 | < 100 | – | < 100 | – | 25 | only is capable of binding to the 565 kDa ryanodine receptor/Ca^2+ release channel | very nearly matched the affinity of native ryanodine | IC50 values similar to ryanodine | 89 | very nearly matched the affinity of native ryanodine | ~37 | – | – |
| CC1CCC2(O)C3(C)CC4(O)OC2(C1O)C1(O)C3(O)C(OC(=O)c2ccc[nH]2)C(O)(C(C)C)C41C (centres unmarked) [Ryanodine, reference compound] | 1.6 | < 10 | – | – | – | – | – | highest affinity | – | – | highest affinity | – | – | – |
| CC1CCC2(O)C3(C)CC4(O)OC2(C1OC(=O)CCNC(=O)c1cc(N=[N+]=[N-])ccc1[N+](=O)[O-])C1(O)C3(O)C(OC(=O)c2ccc[nH]2)C(O)(C(C)C)C41C (centres unmarked) [Compound 11, 10-O-(3-[2-Nitro-5-azidobenzamido]-propionyl)-ryanodine] | 3.2 | < 100 | – | < 100 | – | – | – | very nearly matched the affinity of native ryanodine | – | – | very nearly matched the affinity of native ryanodine | – | IC50 values similar to ryanodine | – |
| CC(C)C1(O)C(OC(=O)c2ccc[nH]2)C2(O)C3(C)CC4(O)OC5(C(O)C(CSCCOC(=O)C(=[N+]=[N-])C(F)(F)F)CCC35O)C2(O)C41C (centres unmarked) [Compound 7, 21-(2-[3,3,3-Trifluoro-2-diazopropionyloxy]-ethylmercapto)-ryanodine] | 4 | < 1000 | – | < 1000 | – | – | – | little effect on the IC50 | – | – | – | – | – | – |
| CC(C)C1(O)C(OC(=O)c2ccc[nH]2)C2(O)C3(C)CC4(O)OC5(C(O)C(CSCCCCOC(=O)c6ccc(N=[N+]=[N-])cc6)CCC35O)C2(O)C41C (centres unmarked) [Compound 6] | 198 | > 100 | ~100 times | > 100 | – | – | – | lowest affinity | – | – | lowest affinity | – | – | – |
| CC1CCC2(O)C3(C)CC4(O)OC2(C1OC(=O)CCNC(=O)c1ccc(C(=O)c2ccccc2)cc1)C1(O)C3(O)C(OC(=O)c2ccc[nH]2)C(O)(C(C)C)C41C (centres unmarked) [Compound 12, 10-O-(3-[4-benzoylbenzamido]-propionyl)-ryanodine] | 6 | < 100 | – | < 100 | – | – | – | very nearly matched the affinity of native ryanodine | – | – | very nearly matched the affinity of native ryanodine | – | – | IC50 values similar to ryanodine |

From US5492839A (priority 1994, dated 1996)
